Laboratory results: patent US8795742B2 (priority 2006, dated 2014)

Test system: H5 serum type avian influenza virus
Parameters: species or system yellow chicken
Settings: in vivo

CC(N)C12CC3CC(CC(C3)C1)C2 (stereo not drawn) [Group C, Rimantadine]
Effective rate: 42.5%
Number of death: 23
Rate of death: 57.5%
